{
  "source": "patent US20220145264A1",
  "about": "“CULTURE MEDIUM FOR MAMMALIAN EXPANDED POTENTIAL STEM CELLS, COMPOSITION, AND METHODS THEREOF” (THE UNIVERSITY OF HONG KONG, priority 2019, published 2022)",
  "tested_on": "NANOS3-Tdtomato reporter EPSCs",
  "assay": "Differentiation to PGCLCs from NANOS3-Tdtomato reporter EPSCs (FACS)",
  "type": "cell-based, human",
  "conditions": "5.0 ng/ml supplemented in hEPSCM",
  "protocol": "For human PGCLCs, the PGC differentiation potential of two hEPSC lines are tested with the sequential induction method. Human pre-mesoderm (pre-ME) was first induced in pre-ME media (Advanced RPMI 1640 Medium, 1% B27 supplement, 1×NEAA and 1× glutamine penicillin-streptomycin supplemented with 100 ng/ml Activin A (SCI), 3 μM CHIR99021 and 10 μM of ROCKi Y-27632) for 12 hours. Pre-ME were trypsinized into single cells and seeded into Corning Costar Ultra-Low attachment multi well 96-well plates (Corning, Cat. No. 7007) 4,000-5,000 cells per well in the […] PGCLC medium which was used for porcine PGCLC induction. To improve the cell aggregation, in all PGCLC induction experiments, 0.25% (v/v) poly-vinyl alcohol (Sigma, Cat. No. 341584) are added in the basal medium.",
  "data": [
    {"substance": "ACTIVIN A: Human Recombinant ACTIVIN A cytokine", "values": [
      {"measurement": "NANOS3-tdTomato+ PGCLCs generated", "result": "more and substantially increased"}
    ]}
  ]
}
